Results as given in patent US7368443B2, “2,6-disubstituted piperidines and piperazine compounds” (University of Kentucky Research Foundation, priority 1999, dated 2008).
Where two headings read alike, the source gives them in different places.

Assays:
α7* nicotinic receptor = target: T1, α7* nicotinic receptor (Rattus norvegicus, UniProt Q05941); test: [3H]Methyllycaconitine ([3H]MLA) binding assay
T1 construct: Whole rat brain (minus cortex, striatum and cerebellum) was homogenized; from tissue; host or cells: rat whole brain membranes (minus cortex, striatum and cerebellum)

[1] = target: T2, dopamine transporter (DAT) (Rattus norvegicus, UniProt P23977); test: [3H]Dopamine uptake assay, striatal synaptosomes; format: biochemical
T2 construct: Striata were homogenized in 20 ml of ice-cold sucrose solution; from tissue; host or cells: striatal synaptosomes

[2] = target: T3, serotonin transporter (SERT) (Rattus norvegicus, UniProt P31652); test: [3H]5-HT uptake assay, hippocampal synaptosomes; format: biochemical
T3 construct: Rat hippocampus was homogenized in 20 mL cold 0.32 M sucrose; from tissue; host or cells: rat hippocampal synaptosomes

α4β2* nicotinic receptor = α4β2* nicotinic receptor (Rattus norvegicus, UniProt P09483+P12390); test: High affinity [3H]nicotine binding assay; design: The pellet containing the striatal membranes was resuspended; from tissue; host or cells: rat striatal membranes
[3] = test system: methamphetamine-evoked endogenous DA release from striatal slices; test: Methamphetamine-evoked endogenous DA overflow from superfused striatal slices; format: cell-based; conditions: read-out: Inhibition of Methamphetamine Evoked DA Overflow IC50 (Mean)
α6β2* nicotinic receptor = α6β2* nicotinic receptor (Rattus norvegicus, UniProt P12390+P43143); test: Nicotine-evoked [3H]DA overflow from superfused striatal slices; format: cell-based
[4] = Table 1, rat striatal membranes, read-out: [3H]Nicotine Binding (Ki) α4β2*
[5] = Table 1, rat whole brain membranes, read-out: [3H]MLA Binding (Ki) α7*
[6] = Table 1, read-out: [3H]DA Uptake (Ki)
[7] = Table 3, earlier study, read-out: Ki [3H]-Dopamine Uptake Assay
[8] = Table 1, read-out: [3H]5-HT Uptake (Ki) SERT
[9] = Table 3, earlier study, read-out: Ki [3H]-Nicotine Binding Assay
[10] = read-out: inhibition of nicotine-evoked [3H]DA overflow IC50

Sequence of α4β2* nicotinic receptor (P09483 31-630): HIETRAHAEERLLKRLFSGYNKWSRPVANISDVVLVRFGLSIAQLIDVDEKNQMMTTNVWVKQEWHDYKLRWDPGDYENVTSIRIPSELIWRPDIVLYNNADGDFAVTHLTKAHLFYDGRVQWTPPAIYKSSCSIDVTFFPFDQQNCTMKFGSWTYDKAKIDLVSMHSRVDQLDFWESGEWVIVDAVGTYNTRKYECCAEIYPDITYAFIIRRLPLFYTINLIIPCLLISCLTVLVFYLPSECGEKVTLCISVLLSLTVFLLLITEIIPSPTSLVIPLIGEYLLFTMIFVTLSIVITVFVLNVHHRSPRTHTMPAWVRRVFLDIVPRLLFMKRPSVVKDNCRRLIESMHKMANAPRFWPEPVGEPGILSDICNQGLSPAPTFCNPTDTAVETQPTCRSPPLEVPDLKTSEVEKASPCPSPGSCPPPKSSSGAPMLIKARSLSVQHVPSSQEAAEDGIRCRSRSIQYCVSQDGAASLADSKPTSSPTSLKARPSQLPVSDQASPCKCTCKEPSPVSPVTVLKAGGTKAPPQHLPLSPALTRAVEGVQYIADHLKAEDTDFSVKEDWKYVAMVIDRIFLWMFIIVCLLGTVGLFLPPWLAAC
Sequence of α4β2* nicotinic receptor (P12390 25-500): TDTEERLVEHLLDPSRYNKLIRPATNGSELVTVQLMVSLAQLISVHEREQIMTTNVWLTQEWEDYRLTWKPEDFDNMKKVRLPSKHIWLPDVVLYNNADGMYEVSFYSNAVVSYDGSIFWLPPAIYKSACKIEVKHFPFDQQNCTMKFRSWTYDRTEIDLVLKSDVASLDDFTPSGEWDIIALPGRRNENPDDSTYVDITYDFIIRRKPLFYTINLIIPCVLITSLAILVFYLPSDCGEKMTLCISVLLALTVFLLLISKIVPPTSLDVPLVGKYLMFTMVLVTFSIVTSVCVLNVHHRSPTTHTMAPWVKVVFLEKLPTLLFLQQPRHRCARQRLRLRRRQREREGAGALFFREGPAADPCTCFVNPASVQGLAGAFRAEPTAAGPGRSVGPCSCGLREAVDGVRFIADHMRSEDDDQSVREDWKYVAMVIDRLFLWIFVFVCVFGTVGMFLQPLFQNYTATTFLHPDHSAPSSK
Sequence of α6β2* nicotinic receptor (P43143 31-493): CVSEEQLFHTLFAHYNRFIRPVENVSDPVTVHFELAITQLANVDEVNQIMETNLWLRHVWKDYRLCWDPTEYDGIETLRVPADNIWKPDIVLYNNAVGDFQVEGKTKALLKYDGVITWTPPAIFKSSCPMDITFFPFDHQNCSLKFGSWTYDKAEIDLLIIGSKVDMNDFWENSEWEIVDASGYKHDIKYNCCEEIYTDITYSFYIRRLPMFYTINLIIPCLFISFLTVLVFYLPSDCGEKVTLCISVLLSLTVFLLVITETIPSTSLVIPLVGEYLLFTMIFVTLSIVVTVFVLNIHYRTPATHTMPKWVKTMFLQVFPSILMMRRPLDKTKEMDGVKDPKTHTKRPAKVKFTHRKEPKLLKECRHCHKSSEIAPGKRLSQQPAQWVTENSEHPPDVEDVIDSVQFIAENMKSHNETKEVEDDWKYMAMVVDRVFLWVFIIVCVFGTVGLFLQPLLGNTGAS
Sequence of α6β2* nicotinic receptor (P12390 25-500): as the sequence (P12390 25-500) above
T3 sequence (P31652 whole entry): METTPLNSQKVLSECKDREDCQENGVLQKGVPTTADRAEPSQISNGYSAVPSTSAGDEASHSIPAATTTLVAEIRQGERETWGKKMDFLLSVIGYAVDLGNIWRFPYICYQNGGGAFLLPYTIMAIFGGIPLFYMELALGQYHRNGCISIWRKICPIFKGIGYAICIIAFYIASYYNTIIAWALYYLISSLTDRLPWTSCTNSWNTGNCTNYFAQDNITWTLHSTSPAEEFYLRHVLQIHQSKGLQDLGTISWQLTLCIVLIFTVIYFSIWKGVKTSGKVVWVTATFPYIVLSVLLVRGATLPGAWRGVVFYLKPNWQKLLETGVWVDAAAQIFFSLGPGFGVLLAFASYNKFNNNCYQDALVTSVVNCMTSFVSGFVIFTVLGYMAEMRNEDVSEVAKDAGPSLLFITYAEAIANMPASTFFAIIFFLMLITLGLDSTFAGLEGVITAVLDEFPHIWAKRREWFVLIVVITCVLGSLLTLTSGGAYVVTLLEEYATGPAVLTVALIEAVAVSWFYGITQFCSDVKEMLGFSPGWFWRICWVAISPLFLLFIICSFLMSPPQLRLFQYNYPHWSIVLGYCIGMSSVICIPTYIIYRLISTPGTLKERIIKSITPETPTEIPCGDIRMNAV
T2 sequence (P23977 whole entry): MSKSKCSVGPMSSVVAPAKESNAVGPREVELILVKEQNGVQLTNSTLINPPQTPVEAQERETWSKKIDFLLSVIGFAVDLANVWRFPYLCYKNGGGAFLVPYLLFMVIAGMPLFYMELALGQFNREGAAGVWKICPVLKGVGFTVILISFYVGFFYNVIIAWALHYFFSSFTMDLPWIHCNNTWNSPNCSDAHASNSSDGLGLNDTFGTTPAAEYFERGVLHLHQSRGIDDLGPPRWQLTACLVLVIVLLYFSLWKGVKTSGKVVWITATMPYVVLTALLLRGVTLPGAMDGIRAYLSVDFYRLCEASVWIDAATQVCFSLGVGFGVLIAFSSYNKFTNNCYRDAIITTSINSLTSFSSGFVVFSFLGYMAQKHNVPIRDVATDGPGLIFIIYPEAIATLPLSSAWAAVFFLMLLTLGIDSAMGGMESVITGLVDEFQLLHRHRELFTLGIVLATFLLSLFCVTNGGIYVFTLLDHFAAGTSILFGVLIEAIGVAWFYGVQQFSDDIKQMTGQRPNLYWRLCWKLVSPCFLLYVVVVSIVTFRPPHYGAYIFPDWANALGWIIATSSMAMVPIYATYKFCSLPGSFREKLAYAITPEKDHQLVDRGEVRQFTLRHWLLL
T1 sequence (Q05941 23-502): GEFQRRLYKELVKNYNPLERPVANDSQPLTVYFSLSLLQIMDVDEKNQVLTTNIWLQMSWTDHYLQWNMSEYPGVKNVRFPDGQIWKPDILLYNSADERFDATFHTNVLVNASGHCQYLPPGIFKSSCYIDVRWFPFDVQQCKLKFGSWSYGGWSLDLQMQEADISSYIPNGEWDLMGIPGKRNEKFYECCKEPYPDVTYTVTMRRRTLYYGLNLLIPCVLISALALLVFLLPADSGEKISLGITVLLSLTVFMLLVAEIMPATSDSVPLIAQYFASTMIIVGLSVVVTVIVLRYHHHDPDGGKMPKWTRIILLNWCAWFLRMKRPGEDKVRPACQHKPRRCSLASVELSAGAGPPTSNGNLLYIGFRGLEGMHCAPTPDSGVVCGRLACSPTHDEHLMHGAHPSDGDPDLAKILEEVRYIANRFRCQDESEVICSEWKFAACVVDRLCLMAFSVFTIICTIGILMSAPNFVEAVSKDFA

SMILES | Ki (α4β2* nicotinic receptor; [4]) [µM] | Ki (α7* nicotinic receptor; [5]) [µM] | also measured
CN1[C@@H](C[C@@H](O)c2ccccc2)CCC[C@H]1/C=C/c1ccccc1 [Compound 6, N-Methyl-2R-(2R-hydroxy-2-phenethyl)-6S-trans-styrylpiperidine] | 7.6 |  | Ki (α7* nicotinic receptor): 1.6 µM; Ki ([1]; read-out: [3H]DA Uptake (Ki)): 0.86 µM; Ki ([2]; [3H]5-HT Uptake (Ki) SERT): 0.04 µM; Ki ([2]; inhibition of serotonin uptake Ki): 0.01 to 0.38 µM; melting point: 104 to 105 °C
CN1[C@@H](CCc2ccccc2)CCC[C@@H]1CCc1ccccc1 [Compound 19, N-methyl-2R,6R-trans-di-(2-phenethyl)piperidine] |  |  | IC50 ([3]; Rattus norvegicus): > 100 µM
CN1[C@@H](CC(=O)c2ccccc2)CCC[C@H]1CC(=O)c1ccccc1 [Compound 3] | 37.1 | 22.7 | Ki [1, 6]: 15.8 µM; Ki [1, 7]: 25 µM; Ki [2, 8]: 3.31 µM; Ki (α4β2* nicotinic receptor; [9]): 11 µM
CN1[C@H](CCc2ccccc2)CCC[C@@H]1CC(O)c1ccccc1 (mixture of isomers) [Compound 60] |  |  | Ki ([1]; Ki [3H]-Dopamine Uptake Assay): 8.9 µM; Ki (α4β2* nicotinic receptor; [9]): 0.16 µM
Clc1ccc(CC[C@H]2CCC[C@@H](CCc3ccc(Cl)cc3Cl)N2)c(Cl)c1 [Compound 50, 2,6-cis-di-(2,4-dichlorophenethyl)piperidine] | > 100 | > 100 | 
CCN1[C@@H](CCc2ccccc2)CCC[C@H]1CCc1ccccc1 [Compound 26, N-ethyl-2,6-cis-diphenethylpiperidine] | > 100 |  | Ki (α7* nicotinic receptor): > 100 µM
COc1ccccc1CC[C@H]1CCC[C@@H](CCc2ccccc2OC)N1 [Compound 36, 2,6-cis-di-(o-methoxyphenethyl)piperidine] | > 100 | > 100 | 
CN1[C@@H](CCc2cccc(C(F)(F)F)c2)CCC[C@H]1CCc1cccc(C(F)(F)F)c1 [Compound 45, N-methyl-2,6-cis-di-(m-trifluoromethylphenethyl)piperidine] | > 100 | > 100 | 
CN1[C@@H](C[C@@H](O)c2ccccc2)CCC[C@H]1C[C@H](O)c1ccccc1 [Compound 4, lobelanidine] | 3.1 | 3.29 | Ki [1, 6]: 33.3 µM; inhibition of DAT, potency compared with lobeline ([1]; Table 1 data): equipotently; Ki [1, 7]: 54 µM; inhibition of DAT, potency compared with lobeline ([1]; earlier study (Table 3)): equipotently; Ki [2, 8]: 25.6 µM; Ki (α4β2* nicotinic receptor; [9]): 0.93 µM
Cc1ccc(CC[C@H]2CCC[C@@H](CCc3ccc(C)cc3)N2)cc1 [Compound 42, 2,6-cis-di-(p-methylphenethyl)piperidine] | > 100 | > 100 | 
CN1[C@@H](C[C@H](O)c2ccccc2)CCC[C@H]1/C=C/c1ccccc1 (relative stereo) [Compound 7, N-Methyl-2R-(2S-hydroxy-2-phenethyl)-6S-trans-styrylpiperidine] | > 100 | > 100 | Ki [1, 7]: 1.3 µM; Ki (α4β2* nicotinic receptor; [9]): 4.2 µM; loss of affinity for the nicotinic receptor compared to lobeline (α4β2* nicotinic receptor; earlier study (Table 3)): 1000 fold
COc1ccc(CC[C@H]2CCC[C@@H](CCc3ccc(OC)cc3)N2)cc1 [Compound 40, 2,6-cis-di-(p-methoxyphenethyl)piperidine] | > 100 | > 100 | 
CN1[C@H](CCc2ccccc2)CCC[C@@H]1C[C@H](O)c1ccccc1 [Compound 11, N-Methyl-2R-(2S-hydroxy-2-phenethyl)-6S-(2-phenethyl) piperidine] | 32 | > 100 | 
CCCN1[C@@H](CCc2ccccc2)CCC[C@H]1CCc1ccccc1 [Compound 27, N-(n-propyl)-2,6-cis-diphenethylpiperidine] | > 100 |  | Ki (α7* nicotinic receptor): > 100 µM
CN1C(CC(=O)c2ccccc2)CCCC1CC(O)c1ccccc1 (stereo not drawn) [Compound 1, 2-[6-(β-hydroxyphenethyl)-1-methyl-2-piperidyl]-acetophenone, reference compound] |  |  | Ki [1, 6]: 29.4 µM; Ki [1, 7]: 45 µM; Ki [2, 8]: 25.7 µM
CN1[C@@H](CCc2ccccc2)CCC[C@H]1C[C@H](O)c1ccccc1 [Compound 12] | 1.21 | 36.4 | 
CN1[C@@H](CCc2cccc(F)c2)CCC[C@H]1CCc1cccc(F)c1 [Compound 33, N-methyl-2,6-cis-di-(m-fluorophenethyl)piperidine] | > 100 | > 100 | 
CC(=O)OCc1ccc(CC[C@H]2CCC[C@@H](CCc3ccc(COC(C)=O)cc3)N2)cc1 [Compound 49, 2,6-cis-di-(p-acetoxymethylphenethyl)piperidine] | > 100 | > 100 | 

SMILES | Ki (α4β2* nicotinic receptor; [4]) [µM] | Ki (α7* nicotinic receptor; [5]) [µM] | also measured
Fc1ccc(CC[C@H]2CCC[C@@H](CCc3ccc(F)cc3)N2)cc1 [Compound 34, 2,6-cis-di-(p-fluorophenethyl)piperidine] | > 100 | > 100 | 
FC(F)(F)c1cccc(CC[C@H]2CCC[C@@H](CCc3cccc(C(F)(F)F)c3)N2)c1 [Compound 44, 2,6-cis-di-(m-trifluoromethylphenethyl)piperidine] | > 100 | > 100 | 
CN1[C@@H](/C=C/c2ccccc2)CCC[C@@H]1/C=C/c1ccccc1 [Compound 16, N-methyl-2R,6R-trans-di-trans-styryl piperidine] | 12.3 |  | IC50 ([3]; Rattus norvegicus): 0.43 to 1.25 µM; IC50 ([3]; superfused rat striatal slices): 0.43 µM; melting point: 92 to 93 °C
CN1[C@@H](CCc2ccc(F)cc2)CCC[C@H]1CCc1ccc(F)cc1 [Compound 35, N-methyl-2,6-cis-di-(p-fluorophenethyl)piperidine] | > 100 | > 100 | 
Cc1ccc(CC[C@H]2CCC[C@@H](CCc3ccc(C)cc3)N2C)cc1 [Compound 43, N-methyl-2,6-cis-di-(p-methylphenethyl)piperidine] |  | > 100 | 
CN1[C@H](CCc2ccccc2)CCC[C@H]1CCc1ccccc1 [Compound 18, N-methyl-2S,6S-trans-di-(2-phenethyl)piperidine] |  | 24.3 | IC50 (α6β2* nicotinic receptor; [10]): 0.003 µM; Ki ([1]; [3H]DA Uptake (Ki)): 3.69 µM; Ki ([2]; [3H]5-HT Uptake (Ki) SERT): 2.92 µM; IC50 ([3]; Rattus norvegicus): > 100 µM
COc1cccc(CC[C@H]2CCC[C@@H](CCc3cccc(OC)c3)N2)c1 [Compound 38, 2,6-cis-di-(m-methoxyphenethyl)piperidine] | > 100 | > 100 | 
c1cc2c(cc1CC[C@H]1CCC[C@@H](CCc3ccc4c(c3)OCO4)N1)OCO2 [Compound 28] | > 100 | > 100 | 
CN1[C@@H](CCc2ccc(Cl)cc2Cl)CCC[C@H]1CCc1ccc(Cl)cc1Cl [Compound 51, N-methyl-2,6-cis-di-(2,4-dichlorophenethyl)piperidine] | > 100 | > 100 | 
c1ccc(CC[C@H]2CCC[C@@H](CCc3ccccc3)N2)cc1 [Compound 25, 2,6-cis-diphenethylpiperidine] | > 100 |  | Ki (α7* nicotinic receptor): > 100 µM; IC50 (α6β2* nicotinic receptor; Table 1, inhibition of 10 μM S(−)-nicotine, NI: no inhibition, read-out: Inhibition of Nicotine-Evoked [3H]DA Overflow (IC50) α6β2*): 0.1 µM; IC50 (α6β2* nicotinic receptor; [10]): 0.1 to 1 µM; Ki [1, 6]: 1.03 µM; Ki [2, 8]: 2.51 µM
COc1ccc(CC[C@H]2CCC[C@@H](CCc3ccc(OC)cc3)N2C)cc1 [Compound 41, N-methyl-2,6-cis-di-(p-methoxyphenethyl)piperidine] | > 100 | > 100 | 
Fc1ccccc1CC[C@H]1CCC[C@@H](CCc2ccccc2F)N1 [Compound 30, 2,6-cis-di-(o-fluorophenethyl)piperidine] | > 100 | > 100 | 
CN1[C@@H](CCc2ccccc2)CCC[C@H]1CCc1ccccc1 [Compound 17, N-methyl-2,6-cis-di-(2-phenethyl)piperidine] | 77 | 43.1 | Ki ([1]; Ki [3H]-Dopamine Uptake Assay): 3 µM; Ki ([1]; [3H]DA Uptake (Ki)): 1.95 µM; Ki ([2]; [3H]5-HT Uptake (Ki) SERT): 1.59 µM; IC50 ([3]; Rattus norvegicus): 0.43 to 1.25 µM; IC50 ([3]; superfused rat striatal slices): 0.44 µM; Ki (α4β2* nicotinic receptor; [9]): 14.3 µM
CN1[C@@H](CCc2ccccc2F)CCC[C@H]1CCc1ccccc1F [Compound 31, N-methyl-2,6-cis-di-(o-fluorophenethyl)piperidine] | > 100 | > 100 | 
OCc1ccc(CC[C@H]2CCC[C@@H](CCc3ccc(CO)cc3)N2)cc1 [Compound 48, 2,6-cis-di-(p-hydroxymethylphenethyl)piperidine] | > 100 | > 100 | 
CN1[C@H](C[C@H](O)c2ccccc2)CCC[C@@H]1/C=C/c1ccccc1 [Compound 8] | 9.8 |  | Ki (α7* nicotinic receptor): > 100 µM
Fc1cccc(CC[C@H]2CCC[C@@H](CCc3cccc(F)c3)N2)c1 [Compound 32, 2,6-cis-di-(m-fluorophenethyl)piperidine] |  | > 100 | 
CN1[C@H](CCc2ccccc2)CCC[C@@H]1C[C@@H](O)c1ccccc1 [Compound 10, N-Methyl-2R-(2R-hydroxy-2-phenethyl)-6S-(2-phenethyl) piperidine] | > 100 | 1.25 | Ki ([1]; [3H]DA Uptake (Ki)): 6.62 µM; Ki ([2]; Table 1, data of a mixture of compound 10 and 11, read-out: [3H]5-HT Uptake (Ki) SERT): 0.01 µM; Ki ([2]; read-out: inhibition of serotonin uptake Ki): 0.01 to 0.38 µM
